Values quoted from earlier work, collected in patent US20160201132A1, “GENE EXPRESSION BIOMARKERS OF LAQUINIMOD RESPONSIVENESS” (Teva Pharmaceutical Industries Ltd., priority 2013, published 2016).

Test system: RRMS patients
Settings: 106 RRMS patients vs 102 placebo treated RRMS patients; cited from earlier work

CCN(C(=O)c1c(O)c2c(Cl)cccc2n(C)c1=O)c1ccccc1 [LAQ, 5-chloro-N-ethyl-4-hydroxy-1-methyl-2-oxo-N-phenyl-1,2-dihydroquinoline-3-carboxamide]
reduction in the cumulative number of gadolinium enhanced lesions in brain MRI: about 40%
